ChEMBL document CHEMBL1141735, “HIV-inhibitory and cytotoxic oligostilbenes from the leaves of Hopea malibato” (J Nat Prod, 1998)
≈ marks a conversion by molar mass, not a printed value.

How the values were obtained:
[1] = tested on: Human immunodeficiency virus; test: Antiviral activity against HIV infected in human CEM-SS cells; format: functional, organism-based; settings: Human immunodeficiency virus 1, CEM-SS
CEM-SS = test: Cytotoxicity against human CEM-SS cells; format: cell-based

| SMILES | EC50 [1] | IC50 (CEM-SS) |
| --- | --- | --- |
| Oc1ccc([C@H]2c3c(O)cc(O)cc3[C@@H]3c4c(cc(O)cc4[C@H]2O)O[C@H]3c2ccc(O)cc2)cc1 [BALANOCARPOL] | 20 µg/mL (≈ 42.5 µM) |  |
| Oc1ccc(-c2oc3cc(O)cc4c3c2-c2cc(O)cc(O)c2[C@H](c2ccc(O)cc2)[C@H]4O)cc1 [MALIBATOL A] |  | 13 µg/mL (≈ 27.8 µM) |
| Oc1ccc([C@H]2c3c(O)cc(O)cc3[C@@H]3c4c(cc(O)cc4[C@]2(O)[C@@]2(O)c4cc(O)cc5c4[C@@H](c4cc(O)cc(O)c4[C@@H]2c2ccc(O)cc2)[C@H](c2ccc(O)cc2)O5)O[C@H]3c2ccc(O)cc2)cc1 [DIBALANOCARPOL] | 46 µg/mL (≈ 49 µM) |  |
| Oc1ccc([C@H]2c3c(O)cc(O)c(O)c3-c3c(-c4ccc(O)c(O)c4)oc4cc(O)cc(c34)[C@@H]2O)cc1 [MALIBATOL B] |  | 21 µg/mL (≈ 42 µM) |
